Legend:
Format in all cases: cell-based, human
[1] = test system: cleaved PARP in HL-60 cells; assay: Cleaved PARP (Asp214) detection, flow cytometry; conditions: compound at 2IC50 concentration, 24 h; control 0.7 ± 0.13%
Protocol: (§1) Analysis of apoptosis, DNA damage and cell cycle
(§2) Apoptosis, DNA damage, proliferation and cell cycle kinetics were investigated using the Apoptosis, DNA Damage and Cell Proliferation Kit (BD Biosciences, San Jose, CA, USA) according to the manufacturer’s protocol. Briefly, HL-60 cells (2.0 × 10^5 cells/mL) were seeded in 6-well plates and left to grow for 24 h. Then, the cells were treated with 13d or 13g at IC50 and 2IC50 concentrations. After 24 h incubation, the cells were treated with BrdU solution for 8 h. Then, the cells were collected by centrifugation, fixed and permeabilized. To expose the incorporated BrdU, the cells were incubated with DNase (300 µg/mL in PBS) for 1 h at 37 °C. Afterwards, the cells were stained with fluorescent antibodies, including Anti-BrdU, Anti-Cleaved PARP (Asp214) and Anti-H2AX (pS139) for 20 min at room temperature. Total DNA for cell cycle analysis was stained using DAPI solution (1 µg/mL in staining buffer). Finally, the cells were analyzed by flow cytometry using CytoFLEX (Beckman Coulter, Inc., Brea, CA, USA) and the data analysis was performed with Kaluza Analysis Software v2 (Beckam Coulter, Inc., Brea, CA. USA).
Another hallmark of apoptosis is cleavage of poly(ADP-ribose) polymerase 1 (PARP1) into 24 kDa and 89 kDa fragments executed by caspases 3 and 7. […]

HL-60 cells [2] = assay: Annexin V / propidium iodide apoptosis assay, flow cytometry; conditions: for early apoptotic cells (Annexin V-positive and PI-negative) / late apoptotic cells (Annexin V-positive and PI-positive): compound at 2IC50, 24 h; for early apoptotic cells (Annexin V-positive and PI-negative): control 3.3 ± 0.36%; for late apoptotic cells (Annexin V-positive and PI-positive): control 5.5 ± 1.02%; for change in the number of apoptotic cells: compound at IC50, 24 h
Protocol: Apoptotic cells were detected using FITC Annexin V Apoptosis Detection Kit I (BD Biosciences, San Jose, CA, USA). HL-60 cells (2.0 × 10^5 cells/mL) seeded in 6-well plates and cultured overnight were treated with various concentrations of 13d or 13g for 24 h. Then, the cells were washed with PBS and resuspended in the binding buffer. After staining with FITC Annexin V and propidium iodide (15 min, room temperature) cells were analyzed by flow cytometry using CytoFlex and Kaluza Analysis Software v2 (Beckman Coulter Inc., Brea, CA, USA).
One of the typical features of apoptotic cell death is translocation of phosphatidylserine from the inside surface to the extracellular surface of the cell membrane, which can be detected with Annexin V [27]. Therefore, to examine the ability of the investigated compounds to induce apoptosis in HL-60 cells, we performed Annexin V and propidium iodide (PI) staining (Figure 5C and Figure 6C). In the control group, 90.3 ± 1.15% of HL-60 cells were healthy, 3.3 ± 0.36% were in early stage of apoptosis (Annexin V-positive and PI-negative) and 5.5 ± 1.02% were in late-stage apoptosis (Annaxin V-positive and PI-positive).

HL-60 cells [3] = assay: Cell cycle distribution, DAPI DNA staining and flow cytometry; conditions: 24 h
Protocol: as §1, §2
The cell cycle has a critical role in regulation of cell growth, proliferation and division of cells after DNA damage. Therefore, it often serves as a target in cancer therapy development. The cell cycle distribution was investigated using DAPI DNA staining and flow cytometry analysis.

HL-60 cells [4] = assay: Cell morphology by light microscope; conditions: IC50 and 2IC50, 24 h
Protocol: HL-60 cells were treated with compound 13d or 13g at IC50 and 2IC50 for 24 h. Then, the cells were examined for morphological changes using a light microscope at 40x magnification and photographed.
HL-60 cells grow in suspension and usually have a roughly spherical shape.

| SMILES | population of cells with cleaved PARP [1] | early apoptotic cells (Annexin V-positive and PI-negative) (HL-60 cells [2]) | late apoptotic cells (Annexin V-positive and PI-positive) (HL-60 cells [2]) | change in the number of apoptotic cells (HL-60 cells [2]) | population of cells in G0/G1 phase (HL-60 cells [3]; compound at 2IC50 concentration) | cells in the G2/M phase (HL-60 cells [3]; compound at 2IC50 concentration, control 14.9 ± 1.37%) | morphological changes of the cells (HL-60 cells [4]) | change of G2/M cell population (HL-60 cells [3]; not statistically significant) |
| --- | --- | --- | --- | --- | --- | --- | --- | --- |
| C=C1C(=O)C[C@H](C(C)C)O[C@H]1C(C)C (relative stereo) [Analog 13d, Trans-2,6-diisopropyl-3-methylidenetetrahydro-4H-pyran-4-one] | 49.0 ± 1.61% | 13.0 ± 2.64% | 24.6 ± 2.34% | did not induce a significant change | diminished | 24.1 ± 1.40% | induced several morphological changes |  |
| C=C1C(=O)C[C@H](c2ccccc2)O[C@H]1C(C)C (relative stereo) [Analog 13g, Trans-2-isopropyl-3-methylidene-6-phenyltetrahydro-4H-pyran-4-one] | 13.5 ± 3.6% | 8.7 ± 0.57% | 39.5 ± 1.16% | not effective |  |  | induced several morphological changes | slight increase |

Reference: publication PMC9105583, “Stereoselective Synthesis and Anticancer Activity of 2,6-Disubstituted trans-3-Methylidenetetrahydropyran-4-ones” (Materials, 2022)
